Test results: patent publication US11351178B2, “Selective HDAC6 inhibitors” (ITALFARMACO S.P.A., priority 2017, dated 2022)

Columns and labels:
CT26 tumor = experiment: CT-26 murine model, single agents and combination with anti PD-1 (FIG. 3); type: in vivo, BALB/c mice; details: for CT-26 tumor growth/progression, single agent: p.o. 50 mg/Kg daily
Protocol: FIG. 3: HDAC6 inhibitors reduces CT-26 tumor growth in vivo and their activity can be improved by combined treatment with anti PD-1 antibody. Statistics was evaluated at day 30 by Student's t test. *, P<0.05; **, P<0.01; ***, P<0.001. See text for further details. […] Adult BALB/c mice were injected s.c. with 1×10^6 CT26 tumor cells (diluted to 100 ul with phosphate-buffered saline). One week later, mice were given daily compounds 8 and 10 p.o. at 50 mg/Kg and/or injected with anti-PD1 antibody at 10 mg/Kg. At time of sacrifice, spleens were taken to analyze ex vivo, the tumor immune response. Spleen cells were stimulated with a mixture of CT-26 tumor specific peptides recognized in the context of both MHC I and MHC II. Thus, using this ex vivo stimulation, a specific tumor response mediated by CD4 and CD8 T cells can be detected.

[1] = Pharmacokinetics after single intravenous and oral administration to the mouse
Protocol: Plasma levels and main pharmacokinetic parameters of test compounds were evaluated after single intravenous and oral administration to the mouse.
The formulations were prepared in a mixture of DMSO/PEG400/H2O. Blood was collected at the following sampling times: 5, 10, 15, 30 minutes, 1, 2, 4 and 6 hours after administration. Plasma samples (100 μL) were deproteinized by addition of 1% formic acid in ACN, then vortex mixed and centrifuged. For each sample, an aliquot of the supernatant was collected and diluted with water, filtered with 0.45 μm regenerated cellulose filter and analysed by LC-MS/MS. Plasma levels of the test compounds were calculated on a calibration curve prepared in the range 0.5-200 ng/mL.
Pharmacokinetic parameters were calculated on the mean plasma concentration curve using the software Kinetica™ v.

[2] = system: α-tubulin acetylation in 697 cell line; experiment: In vitro α-tubulin acetylation in 697 cell line; type: cell-based; details: 16 hours, read-out: Tubulin acetylation (ratio of acetylated tubulin and total tubulin towards control); for fold induction at 0.037 µM: Conc 37 nM; for fold induction at 0.111 µM: Conc 111 nM; for fold induction at 0.333 µM: Conc 333 nM; for fold induction at 1 µM: Conc 1000 nM
Protocol: (§1) The in vitro α-tubulin and H3 histone acetylation determination was evaluated on B 697 […] cell line.
(§2) The test molecules were diluted from 20 mM stock solution in DMSO with RPMI 10% FCS+0.01% DMSO medium at 20× concentration compared to the final concentration, added to the cells (15×10^6 cells in a total volume of 30 ml in RPMI medium 10% FCS+0.01% DMSO) to obtain the final concentrations of 1000, 333, 111 and 37 nM and incubated at 37° C., 5% CO2 for 16 hours.
At the end of the incubation period, 5×10^6 cells were taken from each sample, centrifuged for 5 minutes at 1100 rpm and washed in 0.9% NaCl at 4° C. The resulting pellet was lysed by treating at 4° C. for 30 minutes with 150 μl of Complete Lysis-M (Roche, cat-04719956051) containing protease inhibitors and phosphatase (Complete Easy Pack proteinase inhibitor cocktail tablets cat: 04693116001, Phostop easypack phosphatase inhibitor cocktails, cat: 01906837001—Roche), then centrifuged 10 minutes at 14,000 rpm (20817×g). 0.150 μg of supernatant (total protein extract) were diluted in 100 μl of 1×PBS and immobilized in Maxisorp F96 NUN-IMMUNO Plate (Nunc cat #5442404) at room temperature overnight. Plates were washed twice with Wash Buffer (PBS1X+0.005% tween 20) and saturated for 1 hour at room temperature with 300 μL of 1×PBS containing 10 FCS. After washing with buffer (1×PBS containing 0.005% tween), the plates were incubated for two hours at room temperature in the presence of anti-acetylated-α-tubulin antibody (Monoclonal Anti-acetylated-tubulin clone 6-11B-1, mouse ascites fluid, cat #T6793 Sigma, 100 μl diluted 1:1000 in 1×PBS containing 10% FCS) or with total anti-α-tubulin antibody (Monoclonal Anti alpha-tubulin produced in mouse, cat #T6074 Sigma). After washing, 100 μl per well of TMB substrate kit was added for 10 minutes at room temperature in the dark. The reaction was stopped by adding 50 μl of 2N H2SO4. The plates were read at Multiskan Spectrum spectrophotometer at a wavelength of 450 nm.
The degree of acetylation was calculated by dividing the absorbance obtained for acetylated α-tubulin by the absorbance of total α-tubulin.
(§3) Test results of tubulin and H3 histone acetylation, expressed as fold increase of ratio of acetylated α-tubulin/total α-tubulin and H3Ac/H3Tot, respectively, of each sample relative to the control sample (untreated) are summarized in Tables 6 and 6′.

[3] = system: H3 histone acetylation in 697 cell line; experiment: In vitro H3 histone acetylation in 697 cell line; type: cell-based; details: 16 h, read-out: Acetylation of H3 histone (fold increase of acetylated H3/total H3 towards control); for fold induction at 0.111 µM: conc 111 nM; for fold induction at 0.333 µM: conc 333 nM; for fold induction at 1 µM: conc 1000 nM
Protocol: as §1, §2
The remaining cells (10×10^6) were treated by acid extraction of histones (Kazuhiro et al., PNAS (2002), 99 (13) 8921-8926). Cells were centrifuged 5 min at 1100 rpm at 4° C. and washed once in 0.9% NaCl. The resulting pellet was lysed with […] (10 mM Tris.HCl, pH 6.5/50 mM sodium bisulphite, 1% Triton X-100/10 mM MgCl2/8.6% saccharose containing the protease inhibitor mixture (Roche)) for 20 min at 4° C. The resulting nucleus pellet was repeatedly washed in buffer until supernatant clarification (centrifuged at 7,500×g, 5 minutes after each wash) and finally washed in nucleus buffer (10 mM Tris.HCl/13 mm EDTA, pH 7, 4) and resuspended in 250 μl of 0.2 M HCl/H2SO4. Histone proteins were extracted in an acidic environment by incubating overnight at 4° C. under gentle shaking. After centrifugation at 14,000 rpm at 4° C. for 10 minutes, 1250 μl of cold acetone was added to the supernatant and incubated overnight at −20° C., resulting in the precipitation of histone proteins. The pellet obtained after centrifugation for 10 minutes at 14000 rpm and 4° C. was washed with cold acetone, evaporated to dryness and resuspended in 50 μl distilled water. The protein content determination of both total and histone extracts was carried out by a colorimetric assay using a BCA Protein Assay Kit (Pierce cat: 23227).
H3 histone acetylation and total H3 amount were quantified by commercial ELISA assays PathScan acetylated histone H3 Sandwich Elisa kit, cat #7232C and PathScan total histone H3 Sandwich Elisa Kit, cat #7253C Cell Signaling) according to supplier reported method and by detecting absorbance at 450 nm wavelength using Multiskan Spectrum. ELISA tests were performed by analysing 0.250 μg and 0.500 μg of histone extract of each sample. The degree of acetylation was calculated by dividing H3 histone absorbance by histone total absorbance.
as §3

| Structure (SMILES) | fold induction at 0.037 µM [2] | fold induction at 0.111 µM [2] | fold induction at 0.333 µM [2] | fold induction at 1 µM [2] | fold induction at 0.111 µM [3] | fold induction at 0.333 µM [3] | fold induction at 1 µM [3] | further results |
| --- | --- | --- | --- | --- | --- | --- | --- | --- |
| O=C(NO)c1ccc(Cn2nnnc2-c2cccs2)cc1 [comp. 8, N-hydroxy-4-((5-(thiophen-2-yl)-1H-tetrazol-1-yl)methyl)benzamide] |  |  |  |  |  |  |  | CT-26 tumor growth/progression, single agent (CT26 tumor): significantly reduce CT-26 tumor progression; AUCtot ([1]; Os, dose 5.2 mg/kg): 94 ng·h/mL; Cmax ([1]; Os, dose 5.2 mg/kg): 238 ng/mL; Tmax ([1]; Os, dose 5.2 mg/kg): 4.8 min; T1/2 ([1]; i.v., dose […]): 60 min; Vd ([1]; i.v., dose […]): 15.3 L/kg; bioavailability ([1]; plasma, po, 5.2 mg/kg): 18.5% |
| Cn1c(Sc2ccc(C(=O)NO)cc2)nnc1-c1cccs1 [comp. 10, N-hydroxy-4-((4-methyl-5-(thiophen-2-yl)-4H-1,2,4-triazol-3-yl)thio)benzamide] |  |  |  |  |  |  |  | CT-26 tumor growth inhibition, combination with anti PD-1 antibody (CT26 tumor; compound p.o. 50 mg/Kg plus anti-PD1 antibody 10 mg/Kg): further improves tumor growth inhibition; CT-26 tumor growth/progression, single agent (CT26 tumor): significantly reduce CT-26 tumor progression; AUCtot ([1]; Os, dose 5.2 mg/kg): 123 ng·h/mL; Cmax ([1]; Os, dose 5.2 mg/kg): 144 ng/mL; Tmax ([1]; Os, dose 5.2 mg/kg): 15 min; T1/2 ([1]; i.v., dose […]): 78 min; Vd ([1]; i.v., dose […]): 20.5 L/kg; bioavailability ([1]; in vivo, po, 5.2 mg/kg): 25.8% |
| O=C(NO)c1cc(F)c(Cn2nnnc2-c2cccs2)c(F)c1 [comp. 15, 3,5-difluoro-N-hydroxy-4-((5-(thiophen-2-yl)-1H-tetrazol-1-yl)methyl)benzamide] | 1 | 3 | 5 | 12 | 1 | 1 | 1 |  |
| Cn1c(Sc2c(F)cc(C(=O)NO)cc2F)nnc1-c1cccs1 [comp. 17, 3,5-difluoro-N-hydroxy-4-((4-methyl-5-(thiophen-2-yl)-4H-1,2,4-triazol-3-yl)thio)benzamide] |  |  |  |  |  |  |  | AUC ([1]; plasma, iv, 1.3 mg/kg): 114 ng·h/mL; C0 ([1]; plasma, iv, 1.3 mg/kg): 727 ng/mL; Vd ([1]; plasma, iv, 1.3 mg/kg): 16.8 L/kg; clearance ([1]; plasma, iv, 1.3 mg/kg): 190 mL/min/kg; half-life ([1]; plasma, iv, 1.3 mg/kg): 60 min; Tmax ([1]; plasma, po, […]): 4.8 min; bioavailability ([1]; plasma, po, […]): 18.4% |
| O=C(NO)c1cc(F)c(Cn2nnc(-c3ccco3)n2)c(F)c1 [comp. 19, 3,5-difluoro-4-((5-(furan-2-yl)-2H-tetrazol-2-yl)methyl)-N-hydroxybenzamide] | 7 | 15 | 21 | 17 | 1 | 2 | 2 |  |
| O=C(NO)c1cc(F)c(Cn2nnnc2-c2ncccn2)c(F)c1 [comp. 125, 3,5-difluoro-4-[(5-pyrimidin-2-yltetrazol-1-yl)methyl]benzenecarbohydroxamic acid] | 1 | 3 | 6 | 14 | 1 | 1 | 1 |  |
| Cn1c(Sc2c(F)cc(C(=O)NO)cc2F)nnc1-c1cccc(CN2CCCCCC2)c1 [comp. 167, 4-[[5-[3-(azepan-1-ylmethyl)phenyl]-4-methyl-1,2,4-triazol-3-yl]sulfanyl]-3,5-difluoro-benzenecarbohydroxamic acid] | 2 | 3 | 9 | 13 | 1 | 1 | 2 |  |
| Cn1c(Sc2c(F)cc(C(=O)NO)cc2F)nnc1-c1ccc(CN2CCCCCC2)cc1 [comp. 168, 4-[[5-[4-(azepan-1-ylmethyl)phenyl]-4-methyl-1,2,4-triazol-3-yl]sulfanyl]-3,5-difluoro-benzenecarbohydroxamic acid] | 3 | 11 | 19 | 16 | 1 | 1 | 2 |  |
| Nc1ccc(-c2nnn(Cc3c(F)cc(C(=O)NO)cc3F)n2)cc1 [comp. 171, 4-[[5-(4-aminophenyl)tetrazol-2-yl]methyl]-3,5-difluoro-benzenecarbohydroxamic acid] | 10 | 19 | 20 | 22 |  |  | 3 |  |
| Cn1c(Sc2c(F)cc(C(=O)NO)cc2F)nnc1-c1cccnn1 [comp. 179, 3,5-difluoro-4-[(4-methyl-5-pyridazin-3-yl-1,2,4-triazol-3-yl)sulfanyl]benzenecarbohydroxamic acid] | 2 | 7 | 6 | 14 |  |  | 1 |  |
| Cn1c(Sc2c(F)cc(C(=O)NO)cc2F)nnc1-c1ncccc1F [comp. 180, 3,5-difluoro-4-[[5-(3-fluoro-2-pyridyl)-4-methyl-1,2,4-triazol-3-yl]sulfanyl]benzenecarbohydroxamic acid] | 2 | 7 | 15 | 19 |  |  | 1 |  |
| O=C(NO)c1cc(F)c(Cc2nnc(-c3ccncc3)s2)c(F)c1 [compound 195, 3,5-difluoro-4-[[5-(4-pyridyl)-1,3,4-thiadiazol-2-yl]methyl]benzenecarbohydroxamic acid] | 6 | 11 | 10 | 14 | 1 | 1 | 1 |  |
